Measurements from patent US11524938B2, “Aromatic sulfonamide derivatives” (Bayer Pharma Aktiengesellschaft, priority 2016, dated 2022).

Target: T1, human P2X4 (Homo sapiens, UniProt Q99571)
T1 sequence (Q99571 1-388): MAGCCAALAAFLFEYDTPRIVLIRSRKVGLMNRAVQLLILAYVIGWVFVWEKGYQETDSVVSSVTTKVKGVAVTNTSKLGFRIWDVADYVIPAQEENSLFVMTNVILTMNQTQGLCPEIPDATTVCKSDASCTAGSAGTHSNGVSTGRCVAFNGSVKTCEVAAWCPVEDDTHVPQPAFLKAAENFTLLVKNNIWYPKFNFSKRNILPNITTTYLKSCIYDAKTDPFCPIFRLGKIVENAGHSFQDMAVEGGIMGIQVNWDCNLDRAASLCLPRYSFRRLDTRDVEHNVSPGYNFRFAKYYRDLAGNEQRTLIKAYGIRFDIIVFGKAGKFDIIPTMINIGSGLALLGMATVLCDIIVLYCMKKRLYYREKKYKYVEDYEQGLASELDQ
Assay: Human P2X4 HEK Cell FLIPR Assay
Assay type: cell-based
Settings: agonist Bz-ATP at EC80; for Emax: HEK293, HEK293 cells, percentage of maximal inhibition, read-out: Human P2X4 HEK Cells (FLIPR Assay) avg Efficacy [%]; for IC50: HEK293 cells, individual values listed where some fall outside detection range
Description: HEK293 cells stably expressing human P2X4 were plated in poly-D-lysine-coated 384-well plates at a seeding density of 30000 cells/well and incubated overnight. P2X4 function was assessed by measuring intracellular calcium changes using the calcium-chelating dye Fluo8-AM (Molecular Devices) on a fluorescent imaging plate reader (FLEX/FLIPR station; Molecular Devices). On the day of the assay, the medium was removed and the cells were incubated for 30 min at 37° C. and 5% CO2 in 30 μL of dye buffer (Hank's balanced salt solution, 10 mM HEPES, 1.8 mM CaCl2, 1 mM MgCl2, 2 mM probenecid, 5 mM D-glucose monohydrate, 5 μM Fluo8-AM, pH=7.4). Compounds diluted in probenecid buffer (Hank's balanced salt solution, 10 mM HEPES, 1.8 mM CaCl2, 1 mM MgCl2, 2 mM probenecid, 5 mM D-glucose monohydrate, pH=7.4) were added in a volume of 10 μL and allowed to incubate for 30 min at room temperature. The final assay DMSO concentration was 0.5%. The agonist, Bz-ATP (Tocris), was added in a volume of 10 μL at a concentration representing the EC80 value. The EC80 value of Bz-ATP was determined each assay day prior to compound profiling. The fluorescence was measured for an interval of 120 sec at 2 sec intervals. The excitation and emission wavelengths used to monitor fluorescence were 470-495 nm and 515-575 nm, respectively. The data was analyzed based on the increase in peak relative fluorescence units (RFU) compared to the basal fluorescence and the data was normalized to the agonist control. The compounds were tested in triplicates per plate and mean values were plotted in Excel XLFit to determine IC50 values, percentage of maximal inhibition and the Hill coefficients.

Structure (SMILES): NS(=O)(=O)c1cc(NC(=O)Cc2cccnc2Cl)ccc1-n1cc(F)cn1 [Example 158, 2-(2-Chloropyridin-3-yl)-N-[4-(4-fluoro-1H-pyrazol-1-yl)-3-sulfamoylphenyl]acetamide]
- Emax: 89%
- IC50: 2600 nM

Structure (SMILES): CNc1ncc(-c2ccc(NC(=O)Cc3ccccc3Cl)cc2S(N)(=O)=O)cn1 [Example 301, 2-(2-Chlorophenyl)-N-{4-[2-(methylamino)pyrimidin-5-yl]-3-sulfamoylphenyl}acetamide]
- Emax: 74%
- IC50: 10 nM

Structure (SMILES): N#Cc1cnn(-c2ccc(NC(=O)Cc3c(O)cccc3Cl)cc2S(N)(=O)=O)c1 [Example 557, 2-(2-Chloro-6-hydroxyphenyl)-N-[4-(4-cyano-1H-pyrazol-1-yl)-3-sulfamoylphenyl]acetamide]
- Emax: 89%
- IC50: 11 nM

Structure (SMILES): NS(=O)(=O)c1cc(NC(=O)Cc2c(F)ccc(F)c2Cl)ccc1-n1cc(C(F)(F)F)cn1 [Example 133, 2-(2-Chloro-3,6-difluorophenyl)-N-{3-sulfamoyl-4-[4-(trifluoromethyl)-1H-pyrazol-1-yl]phenyl}acetamide]
- Emax: 82%
- IC50: 107 nM

Structure (SMILES): NS(=O)(=O)c1cc(NC(=O)Cc2cc(C(F)(F)F)ccc2Cl)c(C(F)(F)F)cc1-n1cc(C(F)(F)F)cn1 [Example 534, 2-[2-Chloro-5-(trifluoromethyl)phenyl]-N-{5-sulfamoyl-2-(trifluoromethyl)-4-[4-(trifluoromethyl)-1H-pyrazol-1-yl]phenyl}acetamide]
- Emax: 17%
- IC50: > 25000 nM

Structure (SMILES): Cn1nc(C(F)(F)F)cc1-c1ccc(NC(=O)Cc2ccccc2Cl)cc1S(N)(=O)=O [Example 353, 2-(2-Chlorophenyl)-N-{4-[1-methyl-3-(trifluoromethyl)-1H-pyrazol-5-yl]-3-sulfamoylphenyl}acetamide]
- Emax: 87%
- IC50: 57 nM

Structure (SMILES): NS(=O)(=O)c1cc(NC(=O)Cc2ccccc2C(F)(F)F)ccc1-c1cnn(C(F)F)c1 [Example 224, N-{4-[1-(Difluoromethyl)-1H-pyrazol-4-yl]-3-sulfamoylphenyl}-2-[2-(trifluoromethyl)-phenyl]acetamide]
- Emax: 94%
- IC50: 28 nM

Structure (SMILES): NS(=O)(=O)c1cc(NC(=O)Cc2ccccc2F)ccc1-n1ccc(C2CC2)n1 [Example 264, N-[4-(3-Cyclopropyl-1H-pyrazol-1-yl)-3-sulfamoylphenyl]-2-(2-fluorophenyl)-acetamide]
- Emax: 76%
- IC50: 4070 nM

Structure (SMILES): NS(=O)(=O)c1cc(NC(=O)Cc2ccc(Cl)cc2)ccc1-c1ccc(Cl)nc1 [Example 459, 2-(4-Chlorophenyl)-N-[4-(6-chloropyridin-3-yl)-3-sulfamoylphenyl]acetamide]
- Emax: 88%
- IC50: 1340 nM

Structure (SMILES): NS(=O)(=O)c1cc(NC(=O)Cc2ccc(C(F)(F)F)cc2Cl)ccc1-n1cc(C(F)(F)F)nn1 [Example 415, 2-[2-Chloro-4-(trifluoromethyl)phenyl]-N-{3-sulfamoyl-4-[4-(trifluoromethyl)-1H-1,2,3-triazol-1-yl]phenyl}acetamide]
- Emax: 69%
- IC50: 200 nM

Structure (SMILES): N#Cc1cnn(-c2ccc(NC(=O)Cc3cccc(Cl)c3)cc2S(N)(=O)=O)c1 [Example 191, 2-(3-Chlorophenyl)-N-[4-(4-cyano-1H-pyrazol-1-yl)-3-sulfamoylphenyl]acetamide]
- Emax: 76%
- IC50: 180 nM

Structure (SMILES): NS(=O)(=O)c1cc(NC(=O)Cc2ccccc2Cl)c(F)cc1-c1cnn(C(F)F)c1 [Example 494, 2-(2-Chlorophenyl)-N-{4-[1-(difluoromethyl)-1H-pyrazol-4-yl]-2-fluoro-5-sulfamoylphenyl}acetamide]
- Emax: 94%
- IC50: 205 nM

Structure (SMILES): NS(=O)(=O)c1cc(NC(=O)Cc2ccccc2Cl)ccc1-n1cc(CC(F)F)cn1 [Example 259, 2-(2-Chlorophenyl)-N-{4-[4-(2,2-difluoroethyl)-1H-pyrazol-1-yl]-3-sulfamoylphenyl}-acetamide]
- Emax: 91%
- IC50: 50 nM

Structure (SMILES): NS(=O)(=O)c1cc(NC(=O)Cc2ccccc2C(F)(F)F)ccc1-c1ccc(Cl)nc1 [Example 463, N-[4-(6-Chloropyridin-3-yl)-3-sulfamoylphenyl]-2-[2-(trifluoromethyl)phenyl]acetamide]
- Emax: 99%
- IC50: 18 nM

Structure (SMILES): NS(=O)(=O)c1cc(NC(=O)Cc2cccc(F)c2)ccc1-n1cc(Br)cn1 [Example 65, N-[4-(4-Bromo-1H-pyrazol-1-yl)-3-sulfamoylphenyl]-2-(3-fluorophenyl)acetamide]
- Emax: 62%
- IC50: 355 nM

Structure (SMILES): NS(=O)(=O)c1cc(NC(=O)Cc2ccccc2Cl)ccc1-c1nnc(C(F)F)o1 [Example 522, 2-(2-Chlorophenyl)-N-{4-[5-(difluoromethyl)-1,3,4-oxadiazol-2-yl]-3-sulfamoylphenyl}acetamide]
- Emax: 87%
- IC50: 71 nM

Structure (SMILES): NS(=O)(=O)c1cc(NC(=O)Cc2ccccc2Cl)ccc1-n1nc2cc(F)cc(F)c2n1 [Example 482, 2-(2-Chlorophenyl)-N-[4-(4,6-difluoro-2H-benzotriazol-2-yl)-3-sulfamoylphenyl]acetamide]
- Emax: 73%
- IC50: 2340 nM

Structure (SMILES): COc1ccc(CC(=O)Nc2ccc(-n3cc(F)cn3)c(S(N)(=O)=O)c2)cc1 [Example 153, N-[4-(4-Fluoro-1H-pyrazol-1-yl)-3-sulfamoylphenyl]-2-(4-methoxyphenyl)acetamide]
- Emax: 74%
- IC50: 182 nM

Structure (SMILES): NS(=O)(=O)c1cc(NC(=O)Cc2ccccc2Cl)ccc1-n1cc(-c2cnccn2)cn1 [Example 401, 2-(2-Chlorophenyl)-N-{4-[4-(pyrazin-2-yl)-1H-pyrazol-1-yl]-3-sulfamoylphenyl}acetamide]
- Emax: 82%
- IC50: 23 nM

Structure (SMILES): NS(=O)(=O)c1cc(NC(=O)Cc2ccccc2[N+](=O)[O-])ccc1-n1cc(C(F)(F)F)cn1 [Example 110, 2-(2-Nitrophenyl)-N-{3-sulfamoyl-4-[4-(trifluoromethyl)-1H-pyrazol-1-yl]phenyl}-acetamide]
- Emax: 51%
- IC50: 267 nM

Structure (SMILES): Cc1ccccc1CC(=O)Nc1ccc(-n2cc(C(F)(F)F)cn2)c(S(N)(=O)=O)c1 [Example 123, 2-(2-Methylphenyl)-N-{3-sulfamoyl-4-[4-(trifluoromethyl)-1H-pyrazol-1-yl]phenyl}-acetamide]
- Emax: 79%
- IC50: 109 nM

Structure (SMILES): NS(=O)(=O)c1cc(NC(=O)Cc2ccccc2Cl)ccc1-c1cnn(C2COC2)c1 [Example 373, 2-(2-Chlorophenyl)-N-{4-[1-(oxetan-3-yl)-1H-pyrazol-4-yl]-3-sulfamoylphenyl}-acetamide]
- Emax: 89%
- IC50: 167 nM

Structure (SMILES): NS(=O)(=O)c1cc(NC(=O)Cc2ccccc2Cl)ccc1-n1cc(C(F)F)cn1 [Example 379, 2-(2-Chlorophenyl)-N-{4-[4-(difluoromethyl)-1H-pyrazol-1-yl]-3-sulfamoylphenyl}acetamide]
- Emax: 87%
- IC50: 29 nM

Structure (SMILES): N#Cc1cnn(-c2ccc(NC(=O)Cc3ccccc3Br)cc2S(N)(=O)=O)c1 [Example 188, 2-(2-Bromophenyl)-N-[4-(4-cyano-1H-pyrazol-1-yl)-3-sulfamoylphenyl]acetamide]
- Emax: 89%
- IC50: 31 nM

Structure (SMILES): CC(C)(O)c1cnn(-c2ccc(NC(=O)Cc3ccccc3Cl)cc2S(N)(=O)=O)c1 [Example 238, 2-(2-Chlorophenyl)-N-{4-[4-(2-hydroxypropan-2-yl)-1H-pyrazol-1-yl]-3-sulfamoyl-phenyl}acetamide]
- Emax: 76%
- IC50: 682 nM

Structure (SMILES): NS(=O)(=O)c1cc(NC(=O)Cc2ccccc2Cl)ccc1-c1cncc(C(F)(F)F)c1 [Example 331, 2-(2-Chlorophenyl)-N-{3-sulfamoyl-4-[5-(trifluoromethyl)pyridin-3-yl]phenyl}-acetamide]
- Emax: 66%

Structure (SMILES): Cc1ccc(Cl)c(CC(=O)Nc2ccc(-n3cc(Cl)cn3)c(S(N)(=O)=O)c2)c1 [Example 97, 2-(2-Chloro-5-methylphenyl)-N-[4-(4-chloro-1H-pyrazol-1-yl)-3-sulfamoylphenyl]-acetamide]
- Emax: 103%
- IC50: 201 nM

Structure (SMILES): COCCc1cnn(-c2ccc(NC(=O)Cc3ccccc3Cl)cc2S(N)(=O)=O)c1 [Example 256, 2-(2-Chlorophenyl)-N-{4-[4-(2-methoxyethyl)-1H-pyrazol-1-yl]-3-sulfamoylphenyl}-acetamide]
- Emax: 83%
- IC50: 130 nM
